This passage reports IC50 results from patent US20250127169A1, “PLANTS HAVING INCREASED TOLERANCE TO HERBICIDES” (BASF Agricultural Solutions Seed US LLC, priority 2021, published 2025).

Molecules are shown by their SMILES. “And” between values parts separate entries of the source, which are not always exact repeats. Equal entries are not always repeated.

For assay [1], the target named is PPO2 AMATU L397Q, F420M (variant based on SEQ ID NO: 1) (Amaranthus tuberculatus, UniProt Q0NZW9, F420M/L397Q). The experiment in a line: biochemical.
The target in assay [2] is PPO2 AMATU L397E, F420V (variant based on SEQ ID NO: 1) (Amaranthus tuberculatus, UniProt Q0NZW9, F420V/L397E). The experiment in a line: biochemical.

What is called IC50 is the midpoint of a concentration-inhibition curve. The low end stands for inhibition by little substance, the high end for a need for much substance. Take `COC(=O)C(OC)Oc1ccccc1Oc1cc(-n2c(=O)cc(C(F)(F)F)n(C)c2=O)c(F)cc1Br` (stereo not drawn) [phenyluracil 1, methyl 2-[2-[2-bromo-4-fluoro-5-[3-methyl-2,6-dioxo-4-(trifluoromethyl)pyrimidin-1-yl]phenoxy]phenoxy]-2-methoxy-acetate]: the half-maximal inhibitory concentration (IC50) in assay [1] was 0.357 µM and 0.354 µM; in assay [2], 5.79 µM and 5.45 µM.
For `CCOC(=O)C(OC)Oc1ccccc1Oc1cc(-n2c(=O)cc(C(F)(F)F)n(C)c2=O)c(F)cc1Br` (stereo not drawn) [phenyluracil 2, ethyl 2-[2-[2-bromo-4-fluoro-5-[3-methyl-2,6-dioxo-4-(trifluoromethyl)pyrimidin-1-yl]phenoxy]phenoxy]-2-methoxy-acetate], the half-maximal inhibitory concentration (IC50) in assay [1] amounted to 0.159 µM; in assay [2], 6.79 µM.
In the case of `COC(Oc1ccccc1Oc1cc(-n2c(=O)cc(C(F)(F)F)n(C)c2=O)c(F)cc1Br)C(=O)O` (stereo not drawn) [phenyluracil 3, 2-[2-[2-bromo-4-fluoro-5-[3-methyl-2,6-dioxo-4-(trifluoromethyl)pyrimidin-1-yl]phenoxy]phenoxy]-2-methoxy-acetic acid], the values for the concentration for half-maximal inhibition (IC50) in assay [1] and in assay [2] were 0.143 µM and 2.81 µM, respectively.
